Results: ChEMBL document CHEMBL1201862, “PubChem BioAssay data set” (2004)
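Compound exposure: 48 hours, 5 concentrations, 96-well plates. The concentration for 50% growth inhibition is given as GI50.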 Active and inactive are the calls of the source. Rule as the data show it: active = GI50 up to about 1.1 µM and inactive = higher.

Assays:
Test in all cases: NCI tumour cell line growth inhibition, 48 h
786-0 = tested on: 786-0
A498 = tested on: A498
A549 = tested on: A549
ACHN = tested on: ACHN
BT-549 = tested on: BT-549
CAKI-1 = tested on: CAKI-1
CCRF-CEM = tested on: CCRF-CEM
COLO 205 = tested on: COLO 205
DU-145 = tested on: DU-145
EKVX = tested on: EKVX
HCT-116 = tested on: HCT-116
HCT-15 = tested on: HCT-15
HL-60 = tested on: HL-60
HOP-62 = tested on: HOP-62
HOP-92 = tested on: HOP-92
HT-29 = tested on: HT-29
Hs-578T = tested on: Hs-578T
IGROV-1 = tested on: IGROV-1
K562 = tested on: K562
KM12 = tested on: KM12
LOX IMVI = tested on: LOX IMVI
M14 = tested on: M14
MCF7 = tested on: MCF7
MDA-MB-231 = tested on: MDA-MB-231
MDA-MB-435 = tested on: MDA-MB-435
MDA-N = tested on: MDA-N
MOLT-4 = tested on: MOLT-4
Malme-3M = tested on: Malme-3M
NCI-H226 = tested on: NCI-H226
NCI-H23 = tested on: NCI-H23
NCI-H460 = tested on: NCI-H460
NCI-H522 = tested on: NCI-H522
NCI/ADR-RES = tested on: NCI/ADR-RES
OVCAR-3 = tested on: OVCAR-3
OVCAR-4 = tested on: OVCAR-4
OVCAR-5 = tested on: OVCAR-5
OVCAR-8 = tested on: OVCAR-8
PC-3 = tested on: PC-3
RPMI-8226 = tested on: RPMI-8226
SF-268 = tested on: SF-268
SF-295 = tested on: SF-295
SF-539 = tested on: SF-539
SK-MEL-28 = tested on: SK-MEL-28
SK-MEL-5 = tested on: SK-MEL-5
SK-OV-3 = tested on: SK-OV-3
SN12C = tested on: SN12C
SNB-19 = tested on: SNB-19
SNB-75 = tested on: SNB-75
SR = tested on: SR
SW-620 = tested on: SW-620
T47D = tested on: T47D
TK-10 = tested on: TK-10
U-251 = tested on: U-251
UACC-257 = tested on: UACC-257
UACC-62 = tested on: UACC-62
UO-31 = tested on: UO-31
HCC 2998 = tested on: HCC 2998
RXF 393 = tested on: RXF 393
SK-MEL-2 = tested on: SK-MEL-2

## COC(=O)C(Cc1c[nH]c2ccccc12)NP(=O)(O)OCC1OC(n2cc(I)c(=O)[nH]c2=O)CC1O (stereo unspecified)
786-0
  GI50: > 100 µM (inactive)
A498
  GI50: > 100 µM (inactive)
A549
  GI50: > 100 µM (inactive)
ACHN
  GI50: > 100 µM (inactive)
BT-549
  GI50: > 100 µM (inactive)
CAKI-1
  GI50: > 100 µM (inactive)
CCRF-CEM
  GI50: > 100 µM (inactive)
COLO 205
  GI50: > 100 µM (inactive)
DU-145
  GI50: > 100 µM (inactive)
EKVX
  GI50: > 100 µM (inactive)
HCT-116
  GI50: > 100 µM (inactive)
HCT-15
  GI50: > 100 µM
HL-60
  GI50: > 100 µM (inactive)
HOP-62
  GI50: > 100 µM (inactive)
HOP-92
  GI50: > 100 µM (inactive)
HT-29
  GI50: > 100 µM (inactive)
Hs-578T
  GI50: > 100 µM (inactive)
IGROV-1
  GI50: > 100 µM (inactive)
K562
  GI50: > 100 µM (inactive)
KM12
  GI50: > 100 µM (inactive)
LOX IMVI
  GI50: > 100 µM (inactive)
M14
  GI50: > 100 µM (inactive)
MCF7
  GI50: > 100 µM (inactive)
MDA-MB-231
  GI50: > 100 µM (inactive)
MDA-MB-435
  GI50: > 100 µM (inactive)
MDA-N
  GI50: > 100 µM (inactive)
MOLT-4
  GI50: > 100 µM (inactive)
Malme-3M
  GI50: > 100 µM (inactive)
NCI-H226
  GI50: > 100 µM (inactive)
NCI-H23
  GI50: > 100 µM (inactive)
NCI-H460
  GI50: > 100 µM (inactive)
NCI-H522
  GI50: > 100 µM (inactive)
NCI/ADR-RES
  GI50: > 100 µM (inactive)
OVCAR-3
  GI50: > 100 µM (inactive)
OVCAR-4
  GI50: > 100 µM (inactive)
OVCAR-5
  GI50: > 100 µM (inactive)
OVCAR-8
  GI50: > 100 µM (inactive)
PC-3
  GI50: > 100 µM (inactive)
RPMI-8226
  GI50: > 100 µM (inactive)
SF-268
  GI50: > 100 µM (inactive)
SF-295
  GI50: > 100 µM (inactive)
SF-539
  GI50: > 100 µM (inactive)
SK-MEL-28
  GI50: > 100 µM (inactive)
SK-MEL-5
  GI50: > 100 µM (inactive)
SK-OV-3
  GI50: > 100 µM (inactive)
SN12C
  GI50: > 100 µM (inactive)
SNB-19
  GI50: > 100 µM (inactive)
SNB-75
  GI50: > 100 µM (inactive)
SR
  GI50: > 100 µM (inactive)
SW-620
  GI50: > 100 µM (inactive)
T47D
  GI50: > 100 µM (inactive)
TK-10
  GI50: > 100 µM (inactive)
U-251
  GI50: > 100 µM (inactive)
UACC-257
  GI50: > 100 µM (inactive)
UACC-62
  GI50: > 100 µM (inactive)
UO-31
  GI50: > 100 µM (inactive)

## CCN1/C(=C/C#C/C(C)=C\c2sc3ccc(Cl)cc3[n+]2CC)Sc2ccc(Cl)cc21
786-0
  GI50: 3.1 µM (inactive)
A549
  GI50: 3.57 µM (inactive)
ACHN
  GI50: 3.38 µM (inactive)
BT-549
  GI50: 2.14 µM (inactive)
CAKI-1
  GI50: 2.82 µM (inactive)
CCRF-CEM
  GI50: 0.389 µM (active)
COLO 205
  GI50: 1.66 µM (inactive)
DU-145
  GI50: 3.68 µM (inactive)
EKVX
  GI50: 4.25 µM (inactive)
HCC 2998
  GI50: 4.07 µM (inactive)
HCT-116
  GI50: 2.57 µM (inactive)
HCT-15
  GI50: 4.61 µM
HOP-62
  GI50: 4.88 µM (inactive)
HOP-92
  GI50: 1.58 µM (inactive)
HT-29
  GI50: 3.08 µM (inactive)
Hs-578T
  GI50: 4.72 µM (inactive)
IGROV-1
  GI50: 4 µM (inactive)
K562
  GI50: 0.552 µM (active)
KM12
  GI50: 3.1 µM (inactive)
LOX IMVI
  GI50: 3.31 µM (inactive)
M14
  GI50: 3.62 µM (inactive)
MCF7
  GI50: 3.73 µM (inactive)
MDA-MB-231
  GI50: 5.93 µM (inactive)
MDA-MB-435
  GI50: 2.94 µM (inactive)
MDA-N
  GI50: 3.13 µM (inactive)
Malme-3M
  GI50: 1.85 µM (inactive)
NCI-H226
  GI50: 3.82 µM (inactive)
NCI-H460
  GI50: 3.02 µM (inactive)
NCI-H522
  GI50: 1.56 µM (inactive)
NCI/ADR-RES
  GI50: 15.7 µM (inactive)
OVCAR-4
  GI50: 6.53 µM (inactive)
OVCAR-5
  GI50: 7.94 µM (inactive)
OVCAR-8
  GI50: 3.24 µM (inactive)
PC-3
  GI50: 2.33 µM (inactive)
RPMI-8226
  GI50: 1.67 µM (inactive)
RXF 393
  GI50: 5.6 µM (inactive)
SF-268
  GI50: 5.22 µM (inactive)
SF-295
  GI50: 3.4 µM (inactive)
SF-539
  GI50: 3.57 µM (inactive)
SK-MEL-28
  GI50: 9.77 µM (inactive)
SK-MEL-2
  GI50: 1.98 µM (inactive)
SK-MEL-5
  GI50: 2.09 µM (inactive)
SK-OV-3
  GI50: 5.55 µM (inactive)
SN12C
  GI50: 3.57 µM (inactive)
SNB-19
  GI50: 4.09 µM (inactive)
SNB-75
  GI50: 2.61 µM (inactive)
SR
  GI50: 0.668 µM (active)
SW-620
  GI50: 2.43 µM (inactive)
T47D
  GI50: 2.9 µM (inactive)
TK-10
  GI50: 4.28 µM (inactive)
U-251
  GI50: 3.3 µM (inactive)
UACC-257
  GI50: 3.34 µM (inactive)
UACC-62
  GI50: 3.32 µM (inactive)
UO-31
  GI50: 3.85 µM (inactive)

## CCN(CC)CCNc1ccc([N+](=O)[O-])c2nc3ccccc3c(N)c12
786-0
  GI50: 0.361 µM (active)
A498
  GI50: 1.22 µM (inactive)
A549
  GI50: 0.385 µM (active)
ACHN
  GI50: 0.155 µM (active)
BT-549
  GI50: 0.791 µM (active)
CAKI-1
  GI50: 1.23 µM (inactive)
CCRF-CEM
  GI50: 0.251 µM (active)
COLO 205
  GI50: 0.162 µM (active)
DU-145
  GI50: 2.94 µM (inactive)
EKVX
  GI50: 0.428 µM (active)
HCT-116
  GI50: 0.127 µM (active)
HCT-15
  GI50: 0.41 µM
HL-60
  GI50: 0.297 µM (active)
HOP-62
  GI50: 1.48 µM (inactive)
HOP-92
  GI50: 0.755 µM (active)
HT-29
  GI50: 0.359 µM (active)
Hs-578T
  GI50: 0.175 µM (active)
IGROV-1
  GI50: 0.377 µM (active)
K562
  GI50: 0.316 µM (active)
KM12
  GI50: 0.293 µM (active)
LOX IMVI
  GI50: 0.333 µM (active)
M14
  GI50: 0.456 µM (active)
MCF7
  GI50: 0.364 µM (active)
MDA-MB-231
  GI50: 0.41 µM (active)
MDA-MB-435
  GI50: 0.481 µM (active)
MDA-N
  GI50: 0.504 µM (active)
MOLT-4
  GI50: 0.223 µM (active)
NCI-H226
  GI50: 1.35 µM (inactive)
NCI-H23
  GI50: 0.485 µM (active)
NCI-H460
  GI50: 0.291 µM (active)
NCI/ADR-RES
  GI50: 0.401 µM (active)
OVCAR-3
  GI50: 0.701 µM (active)
OVCAR-4
  GI50: 0.422 µM (active)
OVCAR-5
  GI50: 0.621 µM (active)
OVCAR-8
  GI50: 0.361 µM (active)
PC-3
  GI50: 0.372 µM (active)
RPMI-8226
  GI50: 0.311 µM (active)
RXF 393
  GI50: 0.254 µM (active)
SF-268
  GI50: 0.482 µM (active)
SF-295
  GI50: 0.498 µM (active)
SF-539
  GI50: 0.446 µM (active)
SK-MEL-28
  GI50: 0.998 µM (active)
SK-MEL-2
  GI50: 0.214 µM (active)
SK-MEL-5
  GI50: 0.166 µM (active)
SK-OV-3
  GI50: 0.726 µM (active)
SN12C
  GI50: 0.441 µM (active)
SNB-19
  GI50: 0.615 µM (active)
SNB-75
  GI50: 1.17 µM (inactive)
SR
  GI50: 0.243 µM (active)
SW-620
  GI50: 0.208 µM (active)
T47D
  GI50: 0.662 µM (active)
TK-10
  GI50: 0.685 µM (active)
U-251
  GI50: 0.682 µM (active)
UACC-257
  GI50: 0.931 µM (active)
UACC-62
  GI50: 1.01 µM (active)
UO-31
  GI50: 0.597 µM (active)
